From patent publication US20060235222A1, “Indole-derivative modulators of steroid hormone nuclear receptors” (ELI LILLY AND COMPANY, priority 2003, published 2006)

Experiments:
[1] = molecular target: T1, human MR (Homo sapiens, UniProt P08235); test: Mineralocorticoid Receptor Binding Assay (Method 1), [3H]-aldosterone competition; settings: 0.5 nM [3H]-aldosterone, human MR expressed in Sf9 cells
T1 construct: The full length human MR gene is cloned from a human kidney or human brain cDNA library; inferred from own knowledge of the pAcHLT vector (N); made in house; host or cells: Sf9 insect cells (baculovirus)
T1 sequence (P08235 1-984): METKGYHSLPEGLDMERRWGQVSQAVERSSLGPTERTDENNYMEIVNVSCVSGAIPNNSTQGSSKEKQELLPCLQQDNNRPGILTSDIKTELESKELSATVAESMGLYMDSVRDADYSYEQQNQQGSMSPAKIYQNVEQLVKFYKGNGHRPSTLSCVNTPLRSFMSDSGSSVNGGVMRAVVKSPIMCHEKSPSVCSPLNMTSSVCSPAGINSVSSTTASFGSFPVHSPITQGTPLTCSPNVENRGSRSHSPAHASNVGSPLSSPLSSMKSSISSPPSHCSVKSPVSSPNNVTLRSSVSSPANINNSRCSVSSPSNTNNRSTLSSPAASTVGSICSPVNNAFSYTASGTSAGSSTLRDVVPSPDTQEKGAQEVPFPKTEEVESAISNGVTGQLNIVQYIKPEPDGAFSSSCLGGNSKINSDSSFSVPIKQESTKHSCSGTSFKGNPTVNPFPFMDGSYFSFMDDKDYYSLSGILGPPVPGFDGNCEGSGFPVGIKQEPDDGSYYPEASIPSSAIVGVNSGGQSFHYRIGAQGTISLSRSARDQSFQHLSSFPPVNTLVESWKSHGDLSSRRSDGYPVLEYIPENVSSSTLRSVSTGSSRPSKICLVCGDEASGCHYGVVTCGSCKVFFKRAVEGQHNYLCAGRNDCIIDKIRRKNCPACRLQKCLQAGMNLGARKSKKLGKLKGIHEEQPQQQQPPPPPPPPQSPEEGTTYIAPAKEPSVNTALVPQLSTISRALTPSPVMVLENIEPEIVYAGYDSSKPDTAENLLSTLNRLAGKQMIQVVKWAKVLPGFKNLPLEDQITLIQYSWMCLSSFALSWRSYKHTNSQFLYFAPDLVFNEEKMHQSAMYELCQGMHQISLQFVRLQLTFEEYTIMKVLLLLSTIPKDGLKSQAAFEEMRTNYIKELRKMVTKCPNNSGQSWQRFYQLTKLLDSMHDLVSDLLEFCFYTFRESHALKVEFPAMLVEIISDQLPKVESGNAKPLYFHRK
Method in brief: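 Full-length human MR expressed in Sf9 cells via baculovirus; lysate supernatant (about 20-25 μg protein) incubated with 0.5 nM [3H]-aldosterone and test compound for about 16 h at 4° C. Buffer was Tris/molybdate/phosphate/pyrophosphate with 10% glycerol, pH 7.5; filter-bound complex counted by scintillation.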

[2] = molecular target: T2, glucocorticoid receptor (Homo sapiens, UniProt P04150); test: Glucocorticoid Receptor Binding Assay (Method 1), [3H]-dexamethasone competition, A549 cell extract; settings: 1.86 nM [3H]-dexamethasone, read-out: GR Ki (nM) Method 1
T2 construct: containing 50-200 ug of A549 cell extract and 1.86 nM; host or cells: A549 human lung epithelial cells
T2 sequence (P04150 1-777): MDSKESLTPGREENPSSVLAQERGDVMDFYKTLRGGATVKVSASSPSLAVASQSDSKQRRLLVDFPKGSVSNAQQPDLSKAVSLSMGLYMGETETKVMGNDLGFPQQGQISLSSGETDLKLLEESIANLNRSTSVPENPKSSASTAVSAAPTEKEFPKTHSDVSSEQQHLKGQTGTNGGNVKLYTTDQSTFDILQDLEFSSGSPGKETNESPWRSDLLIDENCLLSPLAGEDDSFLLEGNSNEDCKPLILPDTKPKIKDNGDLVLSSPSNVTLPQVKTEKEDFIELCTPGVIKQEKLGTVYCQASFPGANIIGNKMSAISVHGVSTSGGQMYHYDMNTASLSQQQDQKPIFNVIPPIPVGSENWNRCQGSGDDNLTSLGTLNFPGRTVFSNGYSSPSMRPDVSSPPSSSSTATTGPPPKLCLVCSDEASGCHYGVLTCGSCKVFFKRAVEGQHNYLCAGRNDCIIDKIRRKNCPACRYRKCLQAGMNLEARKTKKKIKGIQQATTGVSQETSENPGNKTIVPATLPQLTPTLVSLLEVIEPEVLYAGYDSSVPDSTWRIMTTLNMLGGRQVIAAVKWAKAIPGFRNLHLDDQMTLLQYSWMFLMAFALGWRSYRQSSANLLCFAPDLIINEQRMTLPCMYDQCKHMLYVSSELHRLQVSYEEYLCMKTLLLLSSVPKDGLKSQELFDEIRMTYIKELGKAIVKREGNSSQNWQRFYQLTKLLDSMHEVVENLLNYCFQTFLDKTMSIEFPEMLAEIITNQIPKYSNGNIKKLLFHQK
Method in brief: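 Receptor source: sonicated extract of human A549 lung epithelial cells in glycerol/Tris-HCl pH 7.2 buffer with sodium molybdate. [3H]-dexamethasone competition run 16 h at 4 °C; unbound radioligand stripped with dextran-coated charcoal (8 min, RT) and receptor-bound radioactivity quantified by scintillation counting.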

Compound	Ki [1] [nM]	Ki [2] [nM]
CC(C)(c1ccc2c(c1)CCO2)c1c[nH]c2c(NS(C)(=O)=O)cccc12 [Example 22, N-{3-[1-(2,3-Dihydro-benzofuran-5-yl)-1-methyl-ethyl]-1H-indol-7-yl}-methanesulfonamide]	< 500	< 500
CCCC(C)(c1ccc(C)cc1)c1c[nH]c2c(NS(C)(=O)=O)cccc12 (stereo not shown) [Example 1, N-[3-(1-Methyl-1-p-tolyl-butyl)-1H-indol-7-yl]methane sulfonamide]	< 500	< 500
CCC(CC)(c1ccco1)c1c[nH]c2c(NS(C)(=O)=O)cccc12 [Example 30, N-[3-(1-Ethyl-1-furan-2-yl-propyl)-1H-indol-7-yl]-methanesulfonamide]	< 500	< 500
CCC(CC)(c1cc2cc(OC)ccc2o1)c1c[nH]c2c(NS(C)(=O)=O)cccc12 [Example 29, N-{3-[1-Ethyl-1-(5-methoxy-benzofuran-2-yl)-propyl]-1H-indol-7-yl}-methanesulfonamide]	< 500	< 1000
CC(C)(c1cc2ccccc2s1)c1c[nH]c2c(NS(C)(=O)=O)cccc12 [Example 13, N-[3-(1-Benzo[b]thiophen-2-yl-1-methyl-ethyl)-1H-indol-7-yl]-methanesulfonamide]	< 500	< 1000
CCC(CC)(c1cc2cc(Cl)ccc2o1)c1c[nH]c2c(NS(C)(=O)=O)cccc12 [Example 11, N-{3-[1-(5-Chloro-benzofuran-2-yl)-1-ethyl-propyl]-1H-indol-7-yl}-methanesulfonamide]	< 500	< 10000
Cc1ccc(C(C)(C)c2c[nH]c3c(NS(C)(=O)=O)cccc23)cc1 [Example 12, N-[3-(1-Methyl-1-p-tolyl-ethyl)-1H-indol-7-yl]-methanesulfonamide]	< 500	< 500
CCC(CC)(c1cc2ccccc2o1)c1c[nH]c2c(NS(C)(=O)=O)cccc12 [Example 2, N-[3-(1-Benzofuran-2-yl-1-ethyl-propyl)-1H-indol-7-yl]-methanesulfonamide]	< 500	< 500
CC(C)(c1csc2ccccc12)c1c[nH]c2c(NS(C)(=O)=O)cccc12 [Example 14, N-[3-(1-Benzo[b]thiophen-3-yl-1-methyl-ethyl)-1H-indol-7-yl]-methanesulfonamide]	< 500	< 500
CCCC(C)(c1ccc(OC)cc1)c1c[nH]c2c(C)cccc12 (stereo not shown) [Example 20, 3-[1-(4-Methoxy-phenyl)-1-methyl-butyl]-7-methyl-1H-indole]	< 500	< 500
CCC(CC)(c1cccs1)c1c[nH]c2c(NS(C)(=O)=O)cccc12 [Example 15, N-[3-(1-Ethyl-1-thiophen-2-yl-propyl)-1H-indol-7-yl]-methanesulfonamide]	< 500	< 500
CCC(CC)(c1cc2ccccc2s1)c1c[nH]c2c(NS(C)(=O)=O)cccc12 [Example 6, N-[3-(1-Benzo[b]thiophen-2-yl-1-ethyl-propyl)-1H-indol-7-yl]-methanesulfonamide]	< 500	< 500
CS(=O)(=O)Nc1cccc2c(C3(c4ccccc4)CCCCC3)c[nH]c12 [Example 16, N-[3-(1-Phenylcyclohexyl)-1H-indol-7-yl]-methanesulfonamide]	< 500	< 1000
CCC(CC)(c1ccc(O)cc1)c1c[nH]c2c(NS(C)(=O)=O)cccc12 [Example 18, N-{3-[1-Ethyl-1-(4-hydroxy-phenyl)-propyl]-1H-indol-7-yl}-methanesulfonamide]	< 500	< 500
CC(C)(c1cc2ccccc2o1)c1c[nH]c2c(NS(C)(=O)=O)cccc12 [Example 9, N-[3-(1-Benzofuran-2-yl-1-methyl-ethyl)-1H-indol-7-yl]-methanesulfonamide]	< 500	< 500

The next lines start with the values.

Ki [1] [nM]	Ki [2] [nM]	Compound
< 10000	< 10000	CC(c1ccccc1)(c1ccccc1)c1cn(CC(=O)O)c2ccccc12 [Example 42, [3-(1,1-Diphenyl-ethyl)-indol-1-yl]-acetic acid]
< 500	< 500	CCC(CC)(c1ccc(Cl)cc1)c1c[nH]c2c(NS(C)(=O)=O)cccc12 [Example 56, N-{3-[1-(4-Chloro-phenyl)-1-ethyl-propyl]-1H-indol-7-yl}-methanesulfonamide]
< 500	< 500	COc1ccc(C(C)(C)c2c[nH]c3c(NS(C)(=O)=O)cccc23)cc1 [Example 55, N-{3-[1-(4-Methoxy-phenyl)-1-methyl-ethyl]-1H-indol-7-yl}-methanesulfonamide]
< 500	< 500	CC(C)(c1ccccc1)c1c[nH]c2c(NS(C)(=O)=O)cccc12 [Example 78, N-[3-(1-Methyl-1-phenyl-ethyl)-1H-indol-7-yl]-methanesulfonamide]
< 500	< 500	Cc1cccc2c(C(C)(c3ccc(F)cc3)C3CC3)c[nH]c12 (stereo not shown) [Example 40, 3-[1-Cyclopropyl-1-(4-fluoro-phenyl)-ethyl]-7-methyl-1H-indole]
< 500	< 500	CCCC(C)(c1cccc(OC)c1)c1c[nH]c2c(NS(C)(=O)=O)cccc12 (stereo not shown) [Example 46, N-{3-[1-(3-Methoxy-phenyl)-1-methyl-butyl]-1H-indol-7-yl}-methanesulfonamide]
< 10000	< 10000	O=C(O)CCn1cc(C(c2ccccc2)(c2ccccc2)c2ccccc2)c2ccccc21 [Example 52, 3-(3-Trityl-indol-1-yl)-propionic acid]
< 500	< 500	CCC(CC)(c1ccccc1)c1c[nH]c2c(NS(C)(=O)=O)cccc12 [Example 61, N-[3-(1-Ethyl-1-phenyl-propyl)-1H-indol-7-yl]-methanesulfonamide]
< 500	< 500	CC(C)(c1ccc2ncccc2c1)c1c[nH]c2c(NS(C)(=O)=O)cccc12 [Example 47, N-[3-(1-Methyl-1-quinolin-6-yl-ethyl)-1H-indol-7-yl]-methanesulfonamide]
< 500	< 500	CCCC(C)(c1ccccc1)c1c[nH]c2c(NS(C)(=O)=O)cccc12 (stereo not shown) [Example 70, N-[3-(1-Methyl-1-phenyl-butyl)-1H-indol-7-yl]-methanesulfonamide]
< 500	< 500	CCC(CC)(c1ccc(C)c(C)c1)c1c[nH]c2c(NS(C)(=O)=O)cccc12 [Example 58, N-{3-[1-(3,4-Dimethyl-phenyl)-1-ethyl-propyl]-1H-indol-7-yl}-methanesulfonamide]
